Series [1] can be described thus: General cytotoxicity test on HepG2 cells. The conditions noted are these: human, HepG2 cells; 72 h incubation; 200 to 0.78 µM; average values of several tests; read-out: Hep-G2 CC50, mkM. The class given is cell-based. On the procedure:
Cell viability was assessed using the above method. Table 6. […] The results are presented as average values of activity obtained in several tests.

Another series has as its system MV4-11. In words: Cell-based antiproliferative test (AlamarBlue), MV4-11. The following applies: Homo sapiens, MV4-11, 120 h, read-out: MV-4-11 IC50, mkM. On the procedure:
Antiproliferative activity of CDK8 inhibitors according to the present invention was measured in a cell-based test on continuous cell cultures MV4-11 (biphenotypic myelomonocytic leukemia, ATCC® CRL-9591™), KG-1 (acute myeloid leukemia, ATCC® CCL-246™), HL-60 (acute promyelocytic leukemia, ATCC® CCL-240™) using a vital stain AlamarBlue (ThermoFisher, #DAL1100). The cells were grown in RPMI-1640 (PanEco, #C330p) medium with addition of 10% FBS (Gibco, #16140-071); washed and resuspended in culture medium with 10% FBS (Gibco, #16140-071) in 96-well culture plates (Corning, #3599) with ≈ 10 ×10^3 cells in […] of medium per well. The compounds in question were dissolved in DMSO and diluted with a medium with 10% FBS (Gibco, #16140-071) to a final concentration ranging form 0 to 100 µM. […] of diluted compounds were then added to each well (final DMSO concentration was less than 1%) and incubated under 5% CO2 atmosphere at 37°C for 120 h. After incubating, 15 µL of AlamarBlue (ThermoFisher, #DAL1100) reagent was added per well, contents of plates were mixed in an orbital shaker (Biosan, Latvia) and further incubated for 3-5 h at 37°C under 5% CO2 atmosphere. Number of living cells was estimated using a microplate spectrophotometer (Tecan Infinite M200Pro, Switzerland) measuring fluorescent signal at the excitation wavelength (λEx) of 540 nm and emission wavelength (λEm) of 590 nm.
IC50 was calculated using Magellan 7.2 software (Tecan, Switzerland) approximating experimental points by four-parameter logistic model with the optimization by Levenberg-Marquardt (table 7, table 7).
Background: Alamar Blue is a resazurin reagent that responds to reducing activity.

Series [2] is described as follows: Chemical stability in human blood plasma. Format: in vitro ADME. The following applies: pooled human blood plasma; 10 µM; 4 hours at 37°C; substance amount in % after thermostatting. Here is the method: (§1) Chemical stability of the compounds described herein was determined in simulated gastric fluid and human blood plasma.
(§2) Determination of stability in human blood plasma was performed using pooled human blood plasma taken from ten healthy donors. The initial candidate solution (10 mM in DMSO) was diluted with pooled blood plasma to a concentration of […] (test solution). The test solution was incubated in a dry block thermostat for 4 hours at 37°C. HPLC with Agilent 1200 liquid chromatography system (Agilent, USA) was employed to determine peak areas of the compounds in test samples, said peak areas corresponding to the initial test time (prior to incubation) and the final test time (after incubation in a dry block thermostat for 4 hours at 37°C), proteins were preliminarily precipitated with acetonitrile. Chromatographic analysis was performed in a gradient elution regime with a flow rate of 1 mL/min. Substance amount in % in a sample after thermostatting was determined.

A short description of series [3]: Enzyme stability in human liver microsomes. The class given is in vitro ADME. The following applies: pH 7.4; 0,5 mg/mL pooled human liver microsomes; 10 µM compound; 37°C; pH=7,4. On the procedure:
Measuring of candidates' enzyme stability enabled estimation of the stability of the present compounds towards the action of enzymes in liver microsomes.
Enzyme degradation rate was measured by incubating the reaction mixture in a dry block thermostat at 37°C, said reaction mixture comprising 0,5 mg/mL of pooled human liver microsomes (XenoTech, USA, cat#H2620), 10 µM compound, 2 mM β-nicotinamide adenine dinucleotide (Carbosynth, UK, cat#NN10871) and 4 mM magnesium chloride in 0,1 M sodium-phosphate buffer, pH=7,4. The reaction was quenched with acetonitrile (100 µL of acetonitrile / 100 µL of the reaction mixture). After quenching, the samples were centrifuged at 10000 rpm for 10 minutes. Supernatant fluid was tested by chromatographic technique using Agilent1200 (Agilent, USA). Chromatographic analysis was performed in a gradient elution regime with a flow rate of 1 mL/min. A graph of the logarithm of substance's peak area as a function of time was made. The dependent factor of the line corresponded to the elimination rate constant K based on which the drug's half-life t1/2 and degradation rate CLint were calculated: Elimination rate constant (k) = (−gradient) [formula] [formula] V(μL/mg) = (volume of incubation(μL))/(protein in the incubation(mg)) [formula] [formula]

Series [4] can be described thus: Chemical stability in simulated gastric fluid (SGF). The class given is physicochemical. The conditions noted are these: SGF without enzymes, pH=1,4; 10 µm; 2 hours at 37°C; substance amount in % after thermostatting. On the procedure:
as §1
as §2, with “SGF concentrate without enzymes, pH=1,4 (Sigma Ireland, cat#01651)” for “Determination of stability in human blood plasma”, “used as simulated gastric fluid. Initial” for “performed using pooled human blood plasma taken from ten healthy donors. The initial”, “an SGF working solution” for “pooled blood plasma”, “2” for “4”, “37°C).” for “37°C), proteins were preliminarily precipitated with acetonitrile.”

The mark [5] stands for this setting: 120 h incubation, average values of several tests.

The structures appear in SMILES notation. Where two headings read alike, the source gives them in different places.

`COC(=O)c1ccc(-n2cnc3c(F)cc(N4CC(C(=O)Nc5ccccc5)C4)cc32)cc1` [CDK8-1-7E, Methyl 4-(6-(3-(phenylcarbamoyl)azetidin-1-yl)-4-fluoro-1H-benzo[d]imidazol-1-yl)benzoate]: in series [1], the CC50 at 72 h is > 100 µM. For the same compound, in the series with MV4-11 (setting [5]), the IC50 is > 2.5 µM.

For `Cn1cc(-c2ccc(-c3cncc4ncc(N5CC(C(=O)N6CCOCC6)C5)cc34)cc2)cn1` [CDK8-3-9, (1-(5-(4-(1-Methyl-1H-pyrazol-4-yl)phenyl)-1,7-naphthyridin-3-yl)azetidin-3-yl) (morpholino)methanone], the “Stability in blood plasma, %” value in series [2] is 100%. Further, in series [1], the CC50 at 72 h was > 20 µM. In the series with MV4-11 (setting [5]), the IC50 turned out to be 10 µM. This compound also returned a microsomal CLint at 10 µM in series [3] of 8.8 µL/min/mg. Also, in series [4], the “Stability in SGF, %” value was 100%.

As for `Cn1cc(-c2ccc(-n3cnc4ccc(N5CC(C(=O)N6CCOCC6)C5)c(F)c43)cc2)cn1` [CDK8-1-20, (1-(1-(4-(1-methyl-1H-pyrazol-4-yl)phenyl)-7-fluoro-1H-benzo[d]imidazol-6-yl)azetidin-3-yl) (morpholino)methanone], the “Stability in blood plasma, %” value in series [2] came out at 100%. The CC50 at 72 h in series [1] was > 200 µM. Further, in the series on MV4-11 (setting [5]), the IC50 is > 1 µM. Further, the intrinsic metabolic clearance (microsomal CLint) at 10 µM in series [3] stood at 12.4 µL/min/mg. Moreover, the “Stability in SGF, %” value in series [4] is on record as 99.4%.

As to `COc1ccc(-n2cnc3ccc(N4CC(C(=O)N5CCOCC5)C4)cc32)cc1` [CDK8-1-12, (1-(1-(4-Methoxyphenyl)-1H-benzo[d]imidazol-6-yl)azetidin-3-yl)(morpholino) methanone], in series [2], the “Stability in blood plasma, %” value is reported as 98%. The CC50 at 72 h in series [1] was > 100 µM. For the same compound, the IC50 in the series with MV4-11 (setting [5]) amounted to 3.38 µM. Also, the intrinsic clearance (microsomal CLint) at 10 µM in series [3] worked out at 3 µL/min/mg. For the same compound, in series [4], the “Stability in SGF, %” value is reported as 98.1%.

`Cn1cc(-c2ccc(-c3cncc4ncc(C(=O)N5CCOCC5)cc34)cc2)cn1` [CDK8-3-33, (5-(4-(1-Methyl-1H-pyrazol-4-yl)phenyl)-1,7-naphthyridin-3-yl)(morpholino)methanone]: the CC50 at 72 h in series [1] stood at 100 µM. Moreover, the IC50 with MV4-11 (setting [5]) was 2.06 µM.

Turning to `N=C(c1ccnc2ccc(-c3ccc(-c4cn[nH]c4)cc3)cc12)N1CCCCC1` [CDK8-5-4i, (6-(4-(1H-Pyrazol-4-yl)phenyl)quinolin-4-yl) (piperidin-1-yl)methanimine], the “Stability in blood plasma, %” value in series [2] came out at 100%. The CC50 at 72 h in series [1] was > 100 µM. For the same compound, the half-maximal inhibitory concentration (IC50) in the series on MV4-11 (setting [5]) stood at 4.32 µM. In series [3], this compound had a microsomal CLint at 10 µM of 19 µL/min/mg. For the same compound, the “Stability in SGF, %” value in series [4] is recorded as 98.8%.

In the case of `O=C(C1CN(c2ccc3ncn(-c4ccc(-c5cn[nH]c5)cc4)c3c2)C1)N1CCOCC1` [CDK8-1-4, (1-(1-(4-(1H-pyrazol-4-yl)phenyl)-1H-benzo[d]imidazol-6-yl)azetidin-3-yl) (morpholino)methanone], the “Stability in blood plasma, %” value in series [2] is 100%. In addition, the CC50 at 72 h in series [1] was > 100 µM. In the series with MV4-11 (setting [5]), the IC50 is 0.7 µM. The compound also had a microsomal CLint at 10 µM in series [3] of 18.8 µL/min/mg. For the same compound, the “Stability in SGF, %” value in series [4] is listed as 98.2%.

As for `COCCNC(=O)c1cnc2cncc(-c3ccc(-n4ccnc4)cc3)c2c1` [CDK8-3-41], in series [1], the CC50 at 72 h is 200 µM. For the same compound, the IC50 in the series with MV4-11 (setting [5]) amounted to 0.572 µM.

`COC1CN(C(=O)c2ccc3nccc(-c4ccc(-c5cn[nH]c5)cc4)c3c2)C1` [CDK8-6-4, (4-(4-(1H-Pyrazol-4-yl)phenyl)quinolin-6-yl)(3-methoxyazetidin-1-yl) methanone]: the “Stability in blood plasma, %” value in series [2] stood at 100%. Besides, the CC50 at 72 h in series [1] worked out at 66.6 µM. The IC50 in the series with MV4-11 (setting [5]) was 7.79 µM. The same compound came in with a microsomal CLint at 10 µM in series [3] of 16.2 µL/min/mg. The “Stability in SGF, %” value in series [4] is 100%.

For `CN(C)CCN(C)C(=O)c1cnc2cncc(-c3ccc(-c4cnn(C)c4)cc3)c2c1` [CDK8-3-35, N-(2-(Dimethylamino)ethyl)-N-methyl-5-(4-(1-methyl-1H-pyrazol-4-yl)phenyl)-1,7-naphthyridine-3-carboxamide], the CC50 at 72 h in series [1] came out at 77.4 µM. In addition, the half-inhibitory concentration (IC50) in the series on MV4-11 (setting [5]) stood at 1.84 µM.

In the case of `CN1CCN(C(=O)c2cnc3cncc(-c4ccc(N(C)C)cc4)c3c2)CC1` [CDK8-3-8, (5-(4-(Dimethylamino)phenyl)-1,7-naphthyridin-3-yl)(4-methylpiperazin-1-yl) methanone], the “Stability in blood plasma, %” value in series [2] worked out at 98%. For the same compound, the CC50 at 72 h in series [1] is > 200 µM. Besides, in the series on MV4-11 (setting [5]), the IC50 came to 7.52 µM. Moreover, in series [3], the microsomal CLint at 10 µM turned out to be 18 µL/min/mg. In addition, the “Stability in SGF, %” value in series [4] is 95.4%.

Turning to `Cn1cc(-c2ccc(-c3cncc4ncc(C(=O)N5CCC[C@@H](O)C5)cc34)cc2)cn1` [CDK8-3-20, (R)-3-(Hydroxypiperidin-1-yl)(5-(4-(1-methyl-1H-pyrazol-4-yl)phenyl)-1,7-naphthyridin-3-yl)methanone], the IC50 in the series with MV4-11 turned out to be 5.04 µM.

For the compound `CN1CCN(Cc2ccc(-c3ccnc4ccc(N5CCC(C)(C(N)=O)CC5)cc34)cc2)CC1` [CDK8-6-3, 4-Methyl-1-(4-(4-((4-methylpiperazin-1-yl)methyl)phenyl)quinolin-6-yl) piperidine-4-carboxamide], the CC50 at 72 h in series [1] is > 60 µM. For the same compound, the half-maximal inhibitory concentration (IC50) in the series on MV4-11 (setting [5]) was 3.18 µM. In series [3], the microsomal CLint at 10 µM amounted to 18.6 µL/min/mg. In addition, in series [4], the “Stability in SGF, %” value is reported as 100%.

`COCCOC(=O)c1cnc2cncc(-c3ccc(-c4cnn(C)c4)cc3)c2c1` [CDK8_3_28, 2-Methoxyethyl-5-[4-(methyl-1-H-pyrazol-4-yl)phenyl]-1,7-naphthyridine-3-carboxylate]: the CC50 at 72 h in series [1] turned out to be 48.4 µM. Moreover, the IC50 in the series on MV4-11 (setting [5]) was found to be 0.871 µM.

Turning to `Cn1cc(-c2ccc(-c3cncc4ncc(C(=O)N5CC[C@@H](O)C5)cc34)cc2)cn1` [CDK8-3-4, (R)-(3-Hydroxypyrrolidin-1-yl) (5-(4-(1-methyl-1H-pyrazol-4-yl)phenyl)-1,7-naphthyridin-3-yl)methanone], the “Stability in blood plasma, %” value in series [2] turned out to be 100%. For the same compound, the CC50 at 72 h in series [1] was found to be 76.4 µM. Also, the IC50 in the series on MV4-11 (setting [5]) was 7.51 µM. The “Stability in SGF, %” value in series [4] is given as 100%.

As for `CN1CCN(C(=O)c2cnc3cncc(-c4ccc(-c5cnn(C)c5)cc4)c3c2)CC1` [CDK8-3-30, (4-Methylpiperazin-1-yl)(5-(4-(1-methyl-1H-pyrazol-4-yl)phenyl)-1,7-naphthyridin-3-yl)methanone], the CC50 at 72 h in series [1] is 100 µM. Besides, the IC50 in the series with MV4-11 (setting [5]) is 0.412 µM.

As usually defined, the CC50 is the concentration at which the toxic effect on the cells reaches its halfway point. By IC50 is commonly meant the concentration needed to halve the response being measured. What is called microsomal CLint is the rate of metabolic loss divided by the concentration. A high value points to rapid turnover.

The values above are taken from patent publication EP3666770A1, “NOVEL HETEROCYCLIC COMPOUNDS AS CDK8/19 INHIBITORS” (Joint Stock Company "Biocad", priority 2017, dated 2019).
